Source: patent publication US6852310B2, “Skin lightening agents, compositions and methods” (Unilever Home & Personal Care USA division of Conopco, Inc., priority 2002, dated 2005)

Key:
B16 mouse melanoma cells = assay: Melanin synthesis in B16 mouse melanoma cells (cell based assay); conditions: 6.25 micromolar, 72 hours, melanin in medium read at 530-nm, read-out: % of Control (Melanin Synthesis)
Description: This experiment was carried out using a cell based assay.
B16 mouse melanoma cells were utilized in the following experiment to evaluate the efficacy of skin lightening agents. B16 cells were plated in 96-well microtiter plates at a density of 5000 cells per well and cultured overnight in Dulbecco's Modified Eagle's Medium (phenol red free) containing 10% fetal bovine serum and 1% penicillin/streptomycin at 37° C. in the presence of 5% CO2. After 24 hours, the medium was replaced with fresh growth medium containing the treatments. All cultures were incubated for 72 hours at which time melanin was visible in the control treatment. The melanin-containing medium was transferred to a clean 96-well plate and quantified by reading the absorbency at 530-nm. Cell viability was assessed by measurement of lactate dehydrogenase levels to ensure the decrease in melanin was not a result of cellular toxicity.

mushroom tyrosinase = assay: Mushroom Tyrosinase Assay; assay type: biochemical; conditions: for tyrosinase activity, % of ethanol control: slope of 475-nm absorbency vs. untreated ethanol control, L-DOPA substrate
Description: Mushroom tyrosinase inhibition is indicative of reduction in melanin synthesis, thereby showing skin lightening effect.
Into each well of a 96-well plate, 150 microliters of phosphate buffer (100 mM, pH 7.0), 10 microliters of L-DOPA (L-3, 4-Dihydroxyphenylalanine, 10 mM), and 20 microliters of skin lightening agent (dissolved in ethanol, which is the control) were added. Following an initial measurement of background absorbency at 475-nm, 20 microliters of mushroom tyrosinase (Sigma T-7755; 6050 units/ml) was added and incubated at room temperature.
Absorbency is read at 475-nm over the following time points: 0, 2, 4, and 6.5 minutes. The data is plotted as 475-nm absorbency vs. time (minutes) and the slope of the line is calculated (ΔAbs 475 nm/min). Values are expressed as the percentage of the respective untreated ethanol control reaction. [formula]

| SMILES | activity at 6.25 µM (B16 mouse melanoma cells) [%] | tyrosinase activity, % of ethanol control (mushroom tyrosinase; 0.1 uM) | tyrosinase activity, % of ethanol control (mushroom tyrosinase; 1 uM) | tyrosinase activity, % of ethanol control (mushroom tyrosinase; 10 uM) | tyrosinase activity, % of ethanol control (mushroom tyrosinase; 100 uM) | skin lightening effectiveness (in words, from tyrosinase data) (mushroom tyrosinase; conclusion drawn from Table 8) |
| --- | --- | --- | --- | --- | --- | --- |
| COCCNC(=O)/C=C\c1ccc(O)cc1O [Resorcinol Amide 2] | 13.7 | 84.2 % of Control | 59.5 % of Control | 58.0 % of Control | 57.9 % of Control |  |
| O=c1ccc2ccc(O)cc2o1 [7-Hydroxy Coumarin, 7-hydroxy coumarin] |  | 104 % of Control | 100 % of Control | 108 % of Control | 117 % of Control | effective in skin lightening |
| CNC(=O)/C=C\c1ccc(O)cc1O [Resorcinol Amide 1] | 13.1 | 75.1 % of Control | 51.0 % of Control | 53.0 % of Control | 53.4 % of Control |  |
| CCc1ccc(O)cc1O [4-Ethyl Resorcinol] | 15.6 | 72.7 % of Control | 46.3 % of Control | 30.8 % of Control | 20.7 % of Control |  |
